Blank lines part the entries; values can stand above or below the compound they belong to.
Legend:
[1] = AUC (0 to 24 hrs) at steady state in mouse at 62 mg/kg administered bid; format: ADME, organism-based; set-up: time < 24 hr, dose 62 mg/kg; conditions: in vivo
[2] = AUC (0 to infinity) in human up to 1200 mg administered bid; format: ADME; set-up: time infinity, dose <=1200
[3] = Dose normalized Cmax in rat at 50 mg/kg, po measured upto 72 hrs by LC-MS/MS analysis; format: ADME, organism-based; conditions: in vivo
[4] = Dose normalized AUC (0 to infinity) in rat at 50 mg/kg, po measured upto 72 hrs by LC-MS/MS analysis; format: ADME, organism-based; conditions: in vivo
[5] = Apparent oral clearance in female cynomolgus monkey at 150 mg/kg, po BID measured on day 8; format: ADME, organism-based, Macaca fascicularis; conditions: in vivo
[6] = Chemical stability of compound in saline assessed as compound remaining at 5 uM measured after 24 hrs by LC-MS/MS analysis; format: physicochemical; conditions: read-out: Stabilty
[7] = Chemical stability of compound in 0.1 N aqueous HCl buffer assessed as compound remaining at pH 1 at 5 uM measured after 1.5 hrs by LC-MS/MS analysis; format: physicochemical; conditions: pH 1, 1.5 h
[8] = Chemical stability of compound in PBS buffer assessed as compound remaining at pH 7.4 at 5 uM measured after 6 hrs by LC-MS/MS analysis; format: physicochemical; conditions: read-out: Stabilty
[9] = Chemical stability of compound in simulated gastric fluid assessed as compound remaining at 5 uM measured after 1.5 hrs by LC-MS/MS analysis; format: ADME, physicochemical; conditions: read-out: Stabilty
[10] = Chemical stability of compound in simulated intestinal fluid assessed as compound remaining at 5 uM measured after 24 hrs by LC-MS/MS analysis; format: ADME, physicochemical; conditions: read-out: Stabilty
[11] = Solubility in simulated gastric fluid; format: physicochemical
[12] = Solubility of the compound in FaSSIF; format: physicochemical
Cytochrome P450 2C9 = Cytochrome P450 2C9 (Homo sapiens, UniProt P11712); assay: Inhibition of CYP2C9 in human hepatocytes; format: ADME, cell-based, Hepatocyte
Sequence of Cytochrome P450 2C9 (P11712 whole entry): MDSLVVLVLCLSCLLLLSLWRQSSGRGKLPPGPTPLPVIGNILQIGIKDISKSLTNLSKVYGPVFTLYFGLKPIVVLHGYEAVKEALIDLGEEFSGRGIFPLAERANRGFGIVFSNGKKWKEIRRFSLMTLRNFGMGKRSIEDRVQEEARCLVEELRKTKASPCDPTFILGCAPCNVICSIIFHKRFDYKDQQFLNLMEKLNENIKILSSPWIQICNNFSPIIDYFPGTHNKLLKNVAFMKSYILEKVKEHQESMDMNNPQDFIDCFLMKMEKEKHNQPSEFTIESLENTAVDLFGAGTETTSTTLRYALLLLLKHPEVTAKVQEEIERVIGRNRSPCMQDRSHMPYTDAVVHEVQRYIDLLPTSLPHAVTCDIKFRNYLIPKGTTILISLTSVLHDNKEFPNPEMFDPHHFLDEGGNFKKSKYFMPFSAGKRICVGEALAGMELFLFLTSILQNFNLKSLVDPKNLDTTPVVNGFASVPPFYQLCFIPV

[13] = molecular target: T1, Solute carrier organic anion transporter family member 1B1 (Homo sapiens, UniProt Q9Y6L6); assay: Inhibition of OATP1B1 (unknown origin) expressed in HEK293 cells; format: cell-based
T1 sequence (Q9Y6L6 whole entry): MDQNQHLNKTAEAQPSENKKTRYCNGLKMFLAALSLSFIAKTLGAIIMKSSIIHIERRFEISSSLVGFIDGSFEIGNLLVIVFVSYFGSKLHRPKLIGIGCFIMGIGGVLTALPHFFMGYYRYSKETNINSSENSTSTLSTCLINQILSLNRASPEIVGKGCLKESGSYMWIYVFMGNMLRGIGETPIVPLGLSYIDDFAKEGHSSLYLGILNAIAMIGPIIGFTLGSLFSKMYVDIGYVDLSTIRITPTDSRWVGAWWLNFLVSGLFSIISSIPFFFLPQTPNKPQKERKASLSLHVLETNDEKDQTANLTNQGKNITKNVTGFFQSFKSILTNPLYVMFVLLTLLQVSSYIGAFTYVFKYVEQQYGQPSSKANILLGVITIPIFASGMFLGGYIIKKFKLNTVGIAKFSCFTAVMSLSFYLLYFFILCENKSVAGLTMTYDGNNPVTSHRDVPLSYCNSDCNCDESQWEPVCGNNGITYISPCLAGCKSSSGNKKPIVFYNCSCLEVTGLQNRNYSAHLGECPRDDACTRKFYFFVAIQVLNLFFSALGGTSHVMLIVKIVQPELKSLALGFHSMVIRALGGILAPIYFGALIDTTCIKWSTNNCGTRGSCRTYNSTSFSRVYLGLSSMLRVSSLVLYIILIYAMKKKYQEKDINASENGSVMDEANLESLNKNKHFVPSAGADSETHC

[14] = molecular target: T2, Solute carrier family 22 member 6 (Homo sapiens, UniProt Q4U2R8); assay: Inhibition of OAT1 (unknown origin) expressed in HEK293 cells; format: cell-based
T2 sequence (Q4U2R8 whole entry): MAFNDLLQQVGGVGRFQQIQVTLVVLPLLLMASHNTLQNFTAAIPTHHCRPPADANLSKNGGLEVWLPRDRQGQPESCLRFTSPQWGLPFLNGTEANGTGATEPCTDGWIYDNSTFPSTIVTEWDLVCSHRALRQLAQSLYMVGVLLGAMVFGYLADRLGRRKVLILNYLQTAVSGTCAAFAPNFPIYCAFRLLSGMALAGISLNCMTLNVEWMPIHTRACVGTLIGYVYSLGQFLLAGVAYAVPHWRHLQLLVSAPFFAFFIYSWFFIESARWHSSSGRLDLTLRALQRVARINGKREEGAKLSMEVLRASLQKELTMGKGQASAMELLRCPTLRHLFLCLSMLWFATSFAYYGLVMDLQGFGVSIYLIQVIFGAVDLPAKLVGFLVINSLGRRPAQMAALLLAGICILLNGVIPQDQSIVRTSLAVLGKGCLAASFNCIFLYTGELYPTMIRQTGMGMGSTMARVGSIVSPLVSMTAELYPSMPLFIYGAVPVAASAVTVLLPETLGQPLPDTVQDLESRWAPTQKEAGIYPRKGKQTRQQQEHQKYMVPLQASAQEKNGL

[15] = molecular target: T3, Broad substrate specificity ATP-binding cassette transporter ABCG2 (Homo sapiens, UniProt Q9UNQ0); assay: Inhibition of BCRP in human Caco-2 cells; format: cell-based
T3 sequence (Q9UNQ0 whole entry): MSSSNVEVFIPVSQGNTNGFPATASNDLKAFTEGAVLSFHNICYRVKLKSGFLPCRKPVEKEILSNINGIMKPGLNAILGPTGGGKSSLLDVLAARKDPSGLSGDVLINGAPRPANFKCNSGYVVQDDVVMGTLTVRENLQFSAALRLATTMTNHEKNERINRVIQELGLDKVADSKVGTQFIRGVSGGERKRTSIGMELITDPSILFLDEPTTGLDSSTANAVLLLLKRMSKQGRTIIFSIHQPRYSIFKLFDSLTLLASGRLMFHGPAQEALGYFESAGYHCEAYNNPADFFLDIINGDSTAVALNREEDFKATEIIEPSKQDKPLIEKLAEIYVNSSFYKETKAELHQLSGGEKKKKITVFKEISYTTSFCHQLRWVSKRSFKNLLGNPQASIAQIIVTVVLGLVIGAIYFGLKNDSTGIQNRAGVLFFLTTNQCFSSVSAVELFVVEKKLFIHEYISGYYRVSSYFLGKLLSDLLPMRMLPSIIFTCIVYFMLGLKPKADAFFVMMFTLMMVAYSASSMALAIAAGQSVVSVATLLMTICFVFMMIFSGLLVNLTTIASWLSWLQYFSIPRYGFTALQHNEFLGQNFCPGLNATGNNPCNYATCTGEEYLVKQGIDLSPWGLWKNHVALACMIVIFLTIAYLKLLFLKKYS

[16] = Tmax in female cynomolgus monkey at 150 mg/kg, po BID measured on day 8; format: ADME, organism-based, Macaca fascicularis; conditions: in vivo
[17] = Half life in male cynomolgus monkey at 75 mg/kg, po BID measured on day 8; format: ADME, organism-based, Macaca fascicularis; conditions: in vivo
[18] = Drug metabolism in cynomolgus monkey assessed as formation of M9 metabolite at 75 to 375 mg/kg, po BID; format: ADME, organism-based, Macaca fascicularis; conditions: in vivo, dose 75-375 mg/kg
[19] = Oral bioavailability in female cynomolgus monkey at 75 mg/kg; format: ADME, organism-based, Macaca fascicularis; conditions: in vivo
[20] = Protein binding in Beagle dog plasma; format: ADME, cell-free, Canis lupus familiaris; conditions: read-out: PPB
[21] = Toxicity in rat assessed as change in behavioral parameter; conditions: in vivo

AUC at 24 h [1]: > 170 µM·h
AUC(0-inf) [2]: 114 µM·h
Cmax/dose [3]: 27 µM
AUC/dose [4]: 1323 µM·h
CL/F [5]: 17.6 mL/min/kg
Structure (SMILES): Cn1cc(C[C@@H](N)C(=O)O)c2ccccc21 [INDOXIMOD]

Structure (SMILES): CCOC(=O)[C@@H](Cc1cn(C)c2ccccc12)NC(=O)[C@@H](N)CC(C)C.Cl
remaining at 24 h, 5 µM [6]: 87%
Stabilty [7]: 90%
remaining at 6 h, 5 µM [8]: 92%
remaining at 1.5 h, 5 µM [9]: 92%
remaining at 24 h, 5 µM [10]: 30%
solubility [11]: 17.1 mg/mL
solubility [12]: 19.1 mg/mL
IC50 (Cytochrome P450 2C9): > 50 µM
IC50 [13]: > 50 µM
IC50 [14]: > 50 µM
inhibition (INH) [15]: Not Active
Tmax [16]: 1 h
half-life [17]: 1.8 h
Drug metabolism [18]: Metabolite_Detected
bioavailability [19]: 50.1%
fraction unbound [20]: 0.5
Activity [21]: Non-Toxic

— ChEMBL document CHEMBL4837181 (Eur J Med Chem, 2020)
